In brackets after ≈: the same amount, converted by molar mass. Counter-ions that a name gives are not always drawn. Like-named read-outs stand apart in the source and are kept apart here.
Experiments:
Type in all cases: cell-based
[1] = system: S. aureus ATCC 49951 (NB01006); assay: MIC by broth microdilution, S. aureus NB01006; conditions: Staphylococcus aureus, ATCC49951, CAMHB, 35° C., 20 hours, read-out: Antibacterial activity (MIC) NB01006
Protocol: (§1) Bacterial isolates were cultivated from −80° C. frozen stocks by overnight passages at 35° C. in ambient air on Mueller-Hinton agar plates (MHA, Becton Dickinson, Franklin Lakes, NB) with the exception of S. pneumoniae which was grown overnight at 35° C. in the presence of 5% CO2 on blood agar plates (tryptic soy agar with 5% sheep blood (Thermo Scientific, Waltham, Mass.) . The following quality control and wild type strains were obtained from the American Type Culture Collection (ATCC; Rockville, Md.) and are coded in the Novartis strain collection as indicated: E. coli ATCC 25922 (NB27001), E. faecalis ATCC 29212 (NB04001), S. aureus ATCC 49951 (NB01006) and S. pneumoniae ATCC […] (NB07001). […] P. aeruginosa NB52019, obtained from Queen's University (Kingston, Ontario, Canada), is the wild-type PAO1 strain.
(§2) Minimal Inhibitory Concentrations (MIC) were determined by the broth microdilution method in accordance with Clinical and Laboratories Institute (CLSI) guidelines. In brief, fresh bacterial overnight cultures were re-suspended in sterile saline, adjusted to a 0.5 McFarland turbidity standard and then diluted to yield a final inoculum of approximately 5×10^5 colony-forming units (CFU)/mL. All bacterial suspensions were prepared in cation adjusted Mueller-Hinton Broth (CAMHB; Becton Dickinson, Franklin Lakes, N.J.;) with the exception of S. pneumoniae which was prepared in CAMHB supplemented with 5% lysed horse blood (Hardy Diagnostics, Santa Maria, Calif.). Two-fold serial dilutions of compounds were prepared in 100% dimethyl sulfoxide (DMSO) at 100-fold the highest final assay concentration; the resulting dilution series of compounds were diluted 1:10 with sterile water. Ten μL of the drug dilution series in 10% DMSO was transferred to microtiter wells and 90 μL of bacterial suspension was inoculated into the wells. All inoculated microdilution trays were incubated in ambient air at 35° C. for 20 hours. Following incubation, assay plates were read in a microtiter plate reader at 600 nm and visually inspected to confirm the MIC endpoint well with the OD value. The lowest concentration of the compound that prevented visible growth was recorded as the MIC (in μg/mL).

[2] = system: S. aureus NB01006-AVR005, gyrA (S84L), grlA (580F) and grlB (E471K); assay: microbe, parasite or virus in culture; conditions: Staphylococcus aureus, 20 h, read-out: Antibacterial activity (MIC) NB01006-AVR005
Protocol: as §1, §2

[3] = system: S. aureus NB01080 fluoroquinolone-resistant clinical isolate; assay: MIC by broth microdilution, S. aureus NB01080; conditions: Staphylococcus aureus, CAMHB, 35° C., 20 hours, read-out: Antibacterial activity (MIC) NB01080
Protocol: as §1, §2

[4] = system: E. faecalis ATCC 29212 (NB04001); assay: MIC by broth microdilution, E. faecalis NB04001; conditions: Enterococcus faecalis, ATCC29212, CAMHB, 35° C., 20 hours, read-out: Antibacterial activity (MIC) NB04001
Protocol: as §1, §2

[5] = system: S. pneumoniae ATCC 25922 (NB07001); assay: MIC by broth microdilution, S. pneumoniae NB07001; conditions: Streptococcus pneumoniae, read-out: Antibacterial activity (MIC) NB07001
Protocol: as §1, §2

[6] = system: E. coli ATCC 25922 (NB27001); assay: MIC by broth microdilution, E. coli NB27001; conditions: Escherichia coli, ATCC25922, CAMHB, 35° C., 20 hours, read-out: Antibacterial activity (MIC) NB27001
Protocol: as §1, §2

[7] = system: P. aeruginosa NB52019, wild-type PAO1 strain; assay: MIC by broth microdilution, P. aeruginosa NB52019; conditions: Pseudomonas aeruginosa, CAMHB, 35° C., 20 hours, read-out: Antibacterial activity (MIC) NB52019
Protocol: as §1, §2

[8] = ATCC25922, S. pneumoniae, CAMHB supplemented with 5% lysed horse blood, 35° C., 20 hours

Compound	MIC [1] [µg/mL]	MIC [2] [µg/mL]	MIC [3] [µg/mL]	MIC [4] [µg/mL]	MIC ([5]; ATCC25922, 20 h) [µg/mL]	MIC [6] [µg/mL]	MIC [7] [µg/mL]	MIC [5, 8] [µg/mL]
C[C@H]1COc2c(N3CC4C(C3)C4N(C)C)c(F)cc3cc(C(=O)O)c(=O)n1c23 (mixture of isomers) [Example 1.69, (3S)-10-(6-(dimethylamino)-3-azabicyclo[3.1.0]hexan-3-yl)-9-fluoro-3-methyl-5-oxo-2,3-dihydro-5H-[1,4]oxazino[2,3,4-ij]quinoline-6-carboxylic acid]	1 to 32	> 32	> 32	> 32	1 to 32	> 32	> 32	
C[C@H]1COc2c(N3CCC4NCCCC4C3)c(F)cc3cc(C(=O)O)c(=O)n1c23 (mixture of isomers) [Example 1.65, (3S)-9-fluoro-3-methyl-10-(octahydro-1,6-naphthyridin-6(2H)-yl)-5-oxo-2,3-dihydro-5H-[1,4]oxazino[2,3,4-ij]quinoline-6-carboxylic acid]	1 to 32	> 32	> 32	> 32	1 to 32	1 to 32	> 32	
C[C@H]1COc2c(N3CCC4(CC3)CC(N)C4)c(F)cc3cc(C(=O)O)c(=O)n1c23 [Example 1.30, (S)-10-(2-amino-7-azaspiro[3.5]nonan-7-yl)-9-fluoro-3-methyl-5-oxo-2,3-dihydro-5H-[1,4]oxazino[2,3,4-ij]quinoline-6-carboxylic acid]	1 to 32 (≈ 2.49 to 79.7 µM)	> 32	> 32	1 to 32 (≈ 2.49 to 79.7 µM)	1 to 32 (≈ 2.49 to 79.7 µM)	> 32	> 32	
C[C@H]1COc2c(N3CC[C@@H](C4(N)CC4)C3)c(Cl)cc3cc(C(=O)O)c(=O)n1c23 [Example 18, (S)-10-((R)-3-(1-aminocyclopropyl)pyrrolidin-1-yl)-9-chloro-3-methyl-5-oxo-2,3-dihydro-5H-[1,4]oxazino[2,3,4-ij]quinoline-6-carboxylic acid hydrochloride salt]	1 to 32	> 32	1 to 32	1 to 32	< 1	> 32	> 32	
COc1c(N2CC[C@@H](C3(N)CC3)C2)c2c3c(cc(C(=O)O)c(=O)n3[C@@H](C)CO2)c1N [Example 15, (S)-8-amino-10-((R)-3-(1-aminocyclopropyl)pyrrolidin-1-yl)-9-methoxy-3-methyl-5-oxo-2,3-dihydro-5H-[1,4]oxazino[2,3,4-ij]quinoline-6-carboxylic acid formate salt]	> 32	> 32	> 32	> 32	1 to 32	> 32	> 32	
CC(O)C1(F)CCN(c2c(F)cc3cc(C(=O)O)c(=O)n4c3c2OC[C@@H]4C)C1 (stereo partly drawn) [Example 1.44, (3S)-9-fluoro-10-(3-fluoro-3-(1-hydroxyethyl)pyrrolidin-1-yl)-3-methyl-5-oxo-2,3-dihydro-5H-[1,4]oxazino[2,3,4-ij]quinoline-6-carboxylic acid]	< 1	> 32	> 32	1 to 32 (≈ 2.54 to 81.1 µM)	1 to 32 (≈ 2.54 to 81.1 µM)	1 to 32 (≈ 2.54 to 81.1 µM)	> 32	
Cc1c(F)c(N2CC[C@@H](C3(N)CC3)C2)c2c3c1cc(C(=O)O)c(=O)n3[C@@H](C)CO2 [Example 22, (S)-10-((R)-3-(1-aminocyclopropyl)pyrrolidin-1-yl)-9-fluoro-3,8-dimethyl-5-oxo-2,3-dihydro-5H-[1,4]oxazino[2,3,4-ij]quinoline-6-carboxylic acid]	< 1	1 to 32 (≈ 2.49 to 79.7 µM)	< 1	< 1	< 1	1 to 32 (≈ 2.49 to 79.7 µM)	> 32	
C[C@H]1CSc2c(N3CC[C@@H](C4(N)CC4)C3)c(F)cc3cc(C(=O)O)c(=O)n1c23.Cl [Example 11, (S)-10-((R)-3-(1-aminocyclopropyl)pyrrolidin-1-yl)-9-fluoro-3-methyl-5-oxo-2,3-dihydro-5H-[1,4]thiazino[2,3,4-ij]quinoline-6-carboxylic acid hydrochloride salt]	< 1	1 to 32	< 1	< 1		1 to 32	> 32	< 1
C[C@H]1Cn2c(=O)c(C(=O)O)cc3cc(F)c(N4CC[C@@H](C5(N)CC5)C4)c(c32)O1 [Example 1.23, (S)-10-((R)-3-(1-aminocyclopropyl)pyrrolidin-1-yl)-9-fluoro-2-methyl-5-oxo-2,3-dihydro-5H-[1,4]oxazino[2,3,4-ij]quinoline-6-carboxylic acid]	> 32	> 32	> 32	> 32	1 to 32 (≈ 2.58 to 82.6 µM)	1 to 32 (≈ 2.58 to 82.6 µM)	> 32	
C[C@H]1COc2c(N3CC4CCCC(C3)N4)c(F)cc3cc(C(=O)O)c(=O)n1c23 [Example 1.66, (3S)-10-(3,9-diazabicyclo[3.3.1]nonan-3-yl)-9-fluoro-3-methyl-5-oxo-2,3-dihydro-5H-[1,4]oxazino[2,3,4-ij]quinoline-6-carboxylic acid]	1 to 32 (≈ 2.58 to 82.6 µM)	> 32	> 32	> 32		1 to 32 (≈ 2.58 to 82.6 µM)	> 32	1 to 32 (≈ 2.58 to 82.6 µM)
C[C@H]1COc2c(N3C[C@@H](CO)[C@@H](CO)C3)c(F)cc3cc(C(=O)O)c(=O)n1c23 [Example 1.79, (S)-10-((3R,4S)-3,4-bis(hydroxymethyl)pyrrolidin-1-yl)-9-fluoro-3-methyl-5-oxo-2,3-dihydro-5H-[1,4]oxazino[2,3,4-ij]quinoline-6-carboxylic acid]	1 to 32 (≈ 2.55 to 81.6 µM)	> 32	> 32	> 32	> 32	> 32	> 32	
C[C@H]1COc2c(N3CC[C@@H](C4(N)CC4)C3)cc(F)c3cc(C(=O)O)c(=O)n1c23 [Example 12.1, (S)-10-((R)-3-(1-aminocyclopropyl)pyrrolidin-1-yl)-8-fluoro-3-methyl-5-oxo-2,3-dihydro-5H-[1,4]oxazino[2,3,4-ij]quinoline-6-carboxylic acid trifluoroacetate salt]	< 1	< 1	< 1	< 1	< 1	< 1	1 to 32	
CN[C@@H](C)[C@@H]1CCN(c2c(F)cc3cc(C(=O)O)c(=O)n4c3c2OC[C@@H]4C)C1 [Example 1.36, (S)-9-fluoro-3-methyl-10-((R)-3-((S)-1-(methylamino)ethyl)pyrrolidin-1-yl)-5-oxo-2,3-dihydro-5H-[1,4]oxazino[2,3,4-ij]quinoline-6-carboxylic acid]	< 1	1 to 32 (≈ 2.57 to 82.2 µM)	< 1	< 1	< 1	1 to 32 (≈ 2.57 to 82.2 µM)	> 32	
NC1([C@@H]2CCN(c3c(F)cc4cc(C(=O)O)c(=O)n5c4c3OC[C@@H]5CO)C2)CC1.O=CO [Example 2, (S)-10-((R)-3-(1-aminocyclopropyl)pyrrolidin-1-yl)-9-fluoro-3-(hydroxymethyl)-5-oxo-2,3-dihydro-5H-[1,4]oxazino[2,3,4-ij]quinoline-6-carboxylic acid formate salt]	> 32	> 32	> 32	> 32		> 32	> 32	> 32
CC1Cc2c(N3CC[C@@H](C4(N)CC4)C3)c(F)cc3cc(C(=O)O)c(=O)n1c23.Cl (single isomer, unassigned) [Example 9.1]	< 1	1 to 32	< 1	< 1		1 to 32	> 32	< 1
